In US20230339866A1, “Quinazoline compounds and the use thereof in the treatment of cancer” (TROBIO THERAPEUTICS PTY LTD, priority 2020, published 2023):

Tests used:
Type in all cases: cell-based
[1] = tested on: SK-N-SH neuroblastoma cells; assay: Anti-proliferative activity (MTS assay) against SK-N-SH neuroblastoma cells
Experimental: The ability of compounds of the disclosure to inhibit the proliferation of SK-N-SH neuroblastoma cells was also assessed. […] Cell viability was normalised to control (vehicle alone) and dose response curves and IC50 values (Table 4) were determined using Graph Pad Prism 6.

A549 (NSCLC) = assay: Anti-proliferative activity (Cell-Titre luminescence) against A549 non-small cell lung cancer cells; settings: 72 h exposure, Cell-Titre luminescent reagent
How it was run: (§1)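 EC50 derived by nonlinear variable-slope sigmoidal fit of luminescent Cell-Titre viability, normalised to vehicle control. Compound (0.1–30 μM, six concentrations) applied for 72 h after 24 h attachment at 37 °C, 5% CO2.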

A2780 (ovarian) = assay: Anti-proliferative activity (Cell-Titre luminescence) against A2780 ovarian cancer cells; settings: 72 h exposure, Cell-Titre luminescent reagent
How it was run: as §1

Compound | IC50 ([1]; Homo sapiens, SK-N-SH, 72 h) [µM] | IC50 (A549 (NSCLC); Homo sapiens, A549, 72 h) [µM] | IC50 (A2780 (ovarian); Homo sapiens, A2780, 72 h) [µM] | IC50 ([1]; 72 hours) [µM] | IC50 (A549 (NSCLC)) [µM] | IC50 (A2780 (ovarian)) [µM]
CCc1ccc(CCNc2nc(NCCc3c[nH]cn3)c3ccccc3n2)cc1 [Compound 86, N^4-(2-(1H-imidazol-4-yl)ethyl)-N^2-(4-ethylphenethyl)quinazoline-2,4-diamine] | 2.17 | 3.23 | 1.07 |  |  | 
COc1ccc(CCNc2nc(NCCCN(C)C)c3ccccc3n2)cc1 [Compound 75, N^4-(3-(dimethylamino)propyl)-N^2-(4-methoxyphenethyl)quinazoline-2,4-diamine] | 1.47 | 1.49 | 0.467 |  |  | 
CN(C)CCCNc1nc(NCCc2ccc(F)cc2)nc2ccccc12 [Compound 78, N^4-(3-(dimethylamino)propyl)-N^2-(4-fluorophenethyl)quinazoline-2,4-diamine] | 1.86 | 2.33 | 2.95 |  |  | 
CN1CCN(CCNc2nc(Nc3cccc(F)c3)nc3ccccc23)CC1 [Compound 56, N^2-(3-fluorophenyl)-N^4-(2-(4-methylpiperazin-1-yl)ethyl)quinazoline-2,4-diamine] | 3.68 | 8.5 | 1.01 |  |  | 
CN(C)CCCNc1nc(NCCc2cccc(F)c2)nc2ccccc12 [Compound 77, N^4-(3-(dimethylamino)propyl)-N^2-(3-fluorophenethyl)quinazoline-2,4-diamine] | 2.36 | 3.04 | 3.49 |  |  | 
Fc1cccc(Nc2nc(NCCc3c[nH]cn3)c3ccccc3n2)c1 [Compound 83, N^4-(2-(1H-imidazol-4-yl)ethyl)-N^2-(3-fluorophenyl)quinazoline-2,4-diamine] |  |  |  | 3.88 | 9.16 | 2.2
CN(C)CCNc1nc(Nc2cccc(C(F)(F)F)c2)nc2ccccc12 [Compound 60, N^4-(2-(dimethylamino)ethyl)-N^2-(3-(trifluoromethyl)phenyl)quinazoline-2,4-diamine] | 2.61 | 2.74 | 2.21 |  |  | 
COc1ccc(CCNc2nc(NCCc3c[nH]cn3)c3ccccc3n2)cc1 [Compound 85, N^4-(2-(1H-imidazol-4-yl)ethyl)-N^2-(4-methoxyphenethyl)quinazoline-2,4-diamine] | 4.28 | 6.81 | 1.74 |  |  | 
OCCCNc1nc(NCCc2ccc(F)cc2)nc2ccccc12 [Compound 95, 3-((2-((4-fluorophenethyl)amino)quinazolin-4-yl)amino)propan-1-ol] | 2.62 | 1.76 | 2.78 |  |  | 
CN(C)CCCNc1nc(NCCc2cccc(C(F)(F)F)c2)nc2ccccc12 [Compound 74, N^4-(3-(dimethylamino)propyl)-N^2-(3-(trifluoromethyl)phenethyl)quinazoline-2,4-diamine] | 1.24 | 1.7 | 1.16 |  |  | 
CN1CCN(CCNc2nc(NCCc3ccc(C(C)(C)C)cc3)nc3ccccc23)CC1 [Compound 129, N^2-(4-(tert-butyl)phenethyl)-N^4-(2-(4-methylpiperazin-1-yl)ethyl)quinazoline-2,4-diamine] | 0.42 | 1 | 0.316 |  |  | 
OCCNc1nc(NCc2ccccc2)nc2ccccc12 [Compound 31, 2-((2-(benzylamino)quinazolin-4-yl)amino)ethan-1-ol] | 14.3 | 3.61 | 1.21 |  |  | 
Fc1cccc(Nc2nc(NCCc3c[nH]cn3)c3ccccc3n2)c1 [Compound 82, N^4-(2-(1H-imidazol-4-yl)ethyl)-N^2-(3-fluorophenyl)quinazoline-2,4-diamine] | 4.46 | 7.46 | 1.88 |  |  | 
Cc1ccc(CCNc2nc(NCCN3CCN(C)CC3)c3ccccc3n2)cc1 [Compound 127, N^2-(4-methylphenethyl)-N^4-(2-(4-methylpiperazin-1-yl)ethyl)quinazoline-2,4-diamine] |  | 2.54 | 2.62 |  |  | 
COc1ccc(CNc2nc(NCCO)c3ccccc3n2)cc1 [Compound 34, 2-((2-((4-methoxybenzyl)amino)quinazolin-4-yl)amino)ethan-1-ol] |  | 14.1 | 12.8 |  |  | 
COc1ccc(CNc2nc(NCCN3CCN(C)CC3)c3ccccc3n2)cc1 [Compound 49, N^2-(4-methoxybenzyl)-N^4-(2-(4-methylpiperazin-1-yl)ethyl)quinazoline-2,4-diamine] |  | 8.77 | 6.87 |  |  | 
OCCNc1nc(Nc2ccc(C(F)(F)F)cc2)nc2ccccc12 [Compound 28, 2-((2-((4-(trifluoromethyl)phenyl)amino)quinazolin-4-yl)amino)ethan-1-ol] |  | > 30 | > 30 |  |  | 
COc1ccc(Nc2nc(NCCN(C)C)c3ccccc3n2)cc1 [Compound 61, N^4-(2-(dimethylamino)ethyl)-N^2-(4-methoxyphenyl)quinazoline-2,4-diamine] |  | 11.9 | 7.09 |  |  | 
CN1CCN(CCNc2nc(NCCc3ccncc3)nc3ccccc23)CC1 [Compound 146, N^4-(2-(4-methylpiperazin-1-yl)ethyl)-N^2-(2-(pyridin-4-yl)ethyl)quinazoline-2,4-diamine] |  | 15.7 | 14.1 |  |  | 
CN(C)CCCNc1nc(-c2ccsc2)nc2ccccc12 [Compound 100, N^1,N^1-dimethyl-N^3-(2-(thiophen-3-yl)quinazolin-4-yl)propane-1,3-diamine] |  | 19.4 | 11.8 |  |  | 
OCCNc1nc(-c2ccc[nH]2)nc2ccccc12 [Compound 20, 2-((2-(1H-pyrrol-2-yl)quinazolin-4-yl)amino)ethan-1-ol] |  | > 30 | > 30 |  |  | 
N^2-(3-methoxyphenyl)-N^4-(2-(4-methylpiperazin-1-yl)ethyl)quinazoline-2,4-diamine [Compound 43] |  |  |  |  | 6.09 | 1.03
OCCNc1nc(NCCc2ccccc2)nc2ccccc12 [Compound 35, 2-((2-(phenethylamino)quinazolin-4-yl)amino)ethan-1-ol] |  | > 30 | 7.47 |  |  | 
COc1ccc(CCNc2nc(NCCN(C)C)c3ccccc3n2)cc1 [Compound 65, N^4-(2-(dimethylamino)ethyl)-N^2-(4-methoxyphenethyl)quinazoline-2,4-diamine] |  | 19.4 | 6.17 |  |  | 
CC(C)C(CNc1nc(-c2cccs2)nc2ccccc12)N1CCN(C)CC1 (centres unmarked) [Compound 3, N-(3-methyl-2-(4-methylpiperazin-1-yl)butyl)-2-(thiophen-2-yl)quinazolin-4-amine] |  | 5.92 | 8.89 |  |  | 
CC(C)C(CNc1nc(-c2ccco2)nc2ccccc12)N1CCN(C)CC1 (centres unmarked) [Compound 6, 2-(furan-2-yl)-N-(3-methyl-2-(4-methylpiperazin-1-yl)butyl)quinazolin-4-amine] |  | > 30 | > 30 |  |  | 
OCCNc1nc(-c2ccco2)nc2ccccc12 [Compound 22, 2-((2-(furan-2-yl)quinazolin-4-yl)amino)ethan-1-ol] |  | > 30 | > 30 |  |  | 
CN1CCN(CCNc2nc(NCCc3cccc(F)c3)nc3ccccc23)CC1 [Compound 58, N^2-(3-fluorophenethyl)-N^4-(2-(4-methylpiperazin-1-yl)ethyl)quinazoline-2,4-diamine] |  | 5.85 | 6.22 |  |  | 
CN1CCN(CCNc2nc(NCCc3cc(Cl)cc(Cl)c3)nc3ccccc23)CC1 [Compound 139, N^2-(3,5-dichlorophenethyl)-N^4-(2-(4-methylpiperazin-1-yl)ethyl)quinazoline-2,4-diamine] |  | 3.44 | 1.1 |  |  | 
